Test results from patent publication US10450549B2, “Aryloxyphenoxypropionate tolerance in turfrgass species and use of AAD1 as a selectable marker” (Dow AgroSciences, LLC, priority 2004, dated 2019).

How the values were obtained:
[1] = test system: AAD1-transformed T0 2095-2 creeping bentgrass events; experiment: Quizalofop-p-ethyl postemergence on AAD1 (pDAB5042) creeping bentgrass line 2095-2; type: in vivo, Agrostis stolonifera
Procedure: Selected T0 plants were sprayed with quizalofop-p-ethyl (Assure II®, DUPONT, Wilmington, Del.) at rates ranging from 60 to 2,240 g ae/ha. […] This rate also controls susceptible monocot weed species. Measured amounts were placed individually in 25 mL glass vials and dissolved in a 4 mL volume of 1.0% (v/v) Agri-Dex® Crop Oil Concentrate (COC) from HELENA CHEMICAL (Collierville, Tenn.). Application solutions were prepared by serial dilution of the highest rate applied. One-half the volume of the highest rate stock solution (2 mL) was transferred to a clean 25 mL vial containing an equal volume of 1% COC and the diluted solution was mixed. Additional dilutions were prepared similarly by removing one-half the volume of the previous concentration (2 mL), and adding to an equal volume of 1% COC and mixing. When preparing the lowest concentration, the remaining one-half volume was discarded. All 2 mL stock solutions were further diluted by adding 10 mL aqueous mixture of 1.0% (v/v) COC, so that the final spray solutions were 12 mL in volume and contained 1.0% (v/v) COC.
Spray solutions were applied to the plant material with an overhead Mandel™ track sprayer equipped with a 8002E nozzles calibrated to deliver 187 L/ha over an application area of 0.503 square meters (m^2) at a spray height of 18 inches (46 cm) above average plant canopy height. Control plants were sprayed in the same manner with the COC blank.
The treated plants and control plants were placed in a greenhouse, and watered by sub-irrigation to prevent wash-off of the test compounds. At various times after application, the condition of the test plants as compared with that of the untreated plants was determined visually and scored on a scale of 0 to 100 percent (where 0 corresponds to no injury or growth inhibition and 100 corresponds to complete kill). Regenerated, non-transformed (NT) ‘Crenshaw’ or elite line 2905-2 creeping bentgrass plants and/or seed-derived clonally propagated plants served as quizalofop sensitive controls. […]

AAD1 (v3) rice plantlets = experiment: Rice tolerance testing with Assure II (sensitivity or resistance 10-14 DAT); type: in vivo, Oryza sativa L. japonica cv. Taipei 309; settings: 140 g ae/ha
Procedure: This concentration corresponds to approximately 140 g ae/ha. Each plant was spayed in a fume hood at a distance of 8-12 inches with 6 full squirts of the sprayer directed so that the entire plant was covered with an equal portion of herbicide. Each squirt delivered approximately 100 μl solution to the plantlet. Once sprayed, plantlets were allowed to dry for one hour before being moved out of the fume hood.

pDAS1421 T0 corn = experiment: Whole plant quizalofop screening of T0 corn lineages containing AAD1 (v3) and AHAS (pDAS1421); type: in vivo; settings: number of lineages
Procedure: Seventy-two Agrobacterium-transformed events were selected on various levels of R-haloxyfop acid and R-cyhalofop acid in vitro. Twenty-two callus samples were analyzed by Southern blot analysis for stable integration of AAD1 (v3) into the genome as described previously.
A minimum six regenerated clonal lineages per event were moved to soil in the greenhouse and screened using a track sprayer as previously described to apply 35 g ae/ha quizalofop when 2-4 new, normal leaves had emerged (see section 8.3.3). Presence of AAD1 protein on a Western blot correlated perfectly with herbicide resistance in the T0 generation regardless of which AOPP herbicide was used for selection. There is no negative impact of the second HTC gene (AHAS) on the function of the AAD1 (v3).

[2] = test system: homozygous T4 lines of Arabidopsis; experiment: 2,4-D injury and AAD1 (v3) expression in homozygous T4 Arabidopsis lines; type: in vivo, Arabidopsis thaliana; settings: 800 g ae/ha and above; 14 DAT
Procedure: An experiment was designed to examine if the level of AAD1 (v3) expression in Arabidopsis varies at different growth stages. A high-tolerance, homozygous, AAD1 (v3) T4 line (id=PAAD1.01.345.163) was grown in greenhouse. […] Two leaves, the 3rd leaf from the top and the 5th leaf from the bottom, were harvested from 5 plants, both treated and untreated, and analyzed by ELISA and Western Blotting (as described in Example 11) experiments at 4, 10, 14, 20 and 25 DAT. […] The protein levels accumulated in older plants with some significant protein degradation at the later time points.
These plants also expressed high level of AAD1 (v3), from 0.1 to 0.25% of (FIG. 9B). On the contrary, the low tolerance line expressed less than 0.1% of AAD1 (v3) in TSP and suffered observable injury.

C[C@@H](Oc1ccc(Oc2cnc3cc(Cl)ccc3n2)cc1)C(=O)O [quizalofop]
mean injury, pDAB5042 2095-2 events ([1]; 120, 480 and 960 g ae/ha, 22 to 50 DAA): less than 25%
injury of 48 of the 53 individual 2095-2 events ([1]; 120 g ae/ha): ≤ 20%
injury of four 2095-2 events ([1]; 120 g ae/ha): between about 25% and 35% injury
Rating for sensitivity or resistance (AAD1 (v3) rice plantlets; Control rice plant): Dead
Rating for sensitivity or resistance (AAD1 (v3) rice plantlets; rice plant 63-1A): No injury
Rating for sensitivity or resistance (AAD1 (v3) rice plantlets; rice plant 63-1F): No injury
Rating for sensitivity or resistance (AAD1 (v3) rice plantlets; rice plant 63-4B): No injury
Rating for sensitivity or resistance (AAD1 (v3) rice plantlets; rice plant 63-4D): No injury
Rating for sensitivity or resistance (AAD1 (v3) rice plantlets; rice plant 63-6C): Dead
Assessment of T0 lineages resistant to 35 g ae/ha quizalofop: Resistant (pDAS1421 T0 corn; event 1421[3]-036): 8
Assessment of T0 lineages resistant to 35 g ae/ha quizalofop: Sensitive (pDAS1421 T0 corn; event 1421[3]-036): 0
Assessment of T0 lineages resistant to 35 g ae/ha quizalofop: Resistant (pDAS1421 T0 corn; event 1421[4]-031): 9
Assessment of T0 lineages resistant to 35 g ae/ha quizalofop: Sensitive (pDAS1421 T0 corn; event 1421[4]-031): 0
Assessment of T0 lineages resistant to 35 g ae/ha quizalofop: Resistant (pDAS1421 T0 corn; event 1421[4]-032): 8
Assessment of T0 lineages resistant to 35 g ae/ha quizalofop: Sensitive (pDAS1421 T0 corn; event 1421[4]-032): 0
Assessment of T0 lineages resistant to 35 g ae/ha quizalofop: Resistant (pDAS1421 T0 corn; event 1421[4]-033): 12
Assessment of T0 lineages resistant to 35 g ae/ha quizalofop: Sensitive (pDAS1421 T0 corn; event 1421[4]-033): 0
Assessment of T0 lineages resistant to 35 g ae/ha quizalofop: Resistant (pDAS1421 T0 corn; event 1421[4]-034): 8
Assessment of T0 lineages resistant to 35 g ae/ha quizalofop: Sensitive (pDAS1421 T0 corn; event 1421[4]-034): 0
Assessment of T0 lineages resistant to 35 g ae/ha quizalofop: Resistant (pDAS1421 T0 corn; event 1421[4]-035): 6
Assessment of T0 lineages resistant to 35 g ae/ha quizalofop: Sensitive (pDAS1421 T0 corn; event 1421[4]-035): 0
Assessment of T0 lineages resistant to 35 g ae/ha quizalofop: Resistant (pDAS1421 T0 corn; event 1421[21]-016): 8
Assessment of T0 lineages resistant to 35 g ae/ha quizalofop: Sensitive (pDAS1421 T0 corn; event 1421[21]-016): 0
Assessment of T0 lineages resistant to 35 g ae/ha quizalofop: Resistant (pDAS1421 T0 corn; event 1421[22]-020): 8
Assessment of T0 lineages resistant to 35 g ae/ha quizalofop: Sensitive (pDAS1421 T0 corn; event 1421[22]-020): 0
Assessment of T0 lineages resistant to 35 g ae/ha quizalofop: Resistant (pDAS1421 T0 corn; event 1421[22]-022): 8
Assessment of T0 lineages resistant to 35 g ae/ha quizalofop: Sensitive (pDAS1421 T0 corn; event 1421[22]-022): 0
Assessment of T0 lineages resistant to 35 g ae/ha quizalofop: Resistant (pDAS1421 T0 corn; event 1421[22]-023): 8
Assessment of T0 lineages resistant to 35 g ae/ha quizalofop: Sensitive (pDAS1421 T0 corn; event 1421[22]-023): 0

O=C(O)COc1ccc(Cl)cc1Cl [2,4-D, 2,4-dichlorophenoxyacetic acid]
response of control plants [2]: died
